Laboratory results taken from US12398117B2, “Heteroarylamidopyridinol derivative and pharmaceutical composition comprising same as active ingredient for prevention or treatment of autoimmune disease” (INNOVO THERAPEUTICS INC., priority 2019, dated 2025).

Experiments:
[1] = system: collagen-induced rheumatoid arthritis animal model; test: Oral efficacy in collagen-induced rheumatoid arthritis (CIA) mouse model; assay type: in vivo, DBA/1J mice
Experimental: 12-week-old normal male mice and arthritis-induced DBA/1J mice were purchased from Central Lab. Animal Inc [To induce arthritis, DBA/1J mice were sensitized by injecting a mixed solution of Complete Freund's Adjuvant (CFA; DIFCO, Detroit, MI) and Bovine Type II collagen (1:1, v/v) intradermally at the pinna base at 8 weeks of age, and then, secondary sensitization was performed by intradermal injection at the tail head at 11 weeks of age]. The purchased arthritis mice were acclimatized to the laboratory environment for a week, and then oral administration of the drug was started.
Visual observation of arthritic lesions was performed using the following scores based on a reference (Barnett et al., 1998).
Therefore, the highest score for arthritic lesions was 16 per mouse.
The hind paw thickness, which is one of the pathological indices of rheumatoid arthritis, was measured using a caliper.
The right hind leg of each mouse was extracted, and all skin and muscles were removed, leaving only the bones and joints. The hind leg was fixed in 4% paraformaldehyde solution for 2 days, then immersed in 10% formic acid for 5 days to decalcify, and then immersed in 30% sucrose solution. When the tissue subsided, the articular tissue was cut into […] thick using a cryomicrotome (Microm HM 450, Thermo Fisher Scientific, Germany) and stored in a cryopreservation solution. Staining was performed using the stored tissue sections. After attaching the tissue sections to the slide glass, they were hydrated with 100%, 95%, 70%, and 50% ethanol solutions, and some were stained with safranin and others were stained with hematoxylin/eosin. For safranin staining, the tissue sections were first stained with 0.1% fast green solution, washed with 1% acetic acid solution, and then stained with 1% safranin solution. Thereafter, the tissue sections were dehydrated by immersing in ethanol solutions in the reverse order of hydration, and then preserved in xylene solution and mounting solution, and photographed under a microscope. Hematoxylin/eosin staining was performed in the same manner as in the colon tissue staining. The tissue sections were dehydrated, preserved in xylene solution and mounting solution, and observed under a microscope.
The degree of microscopic tissue damage of the stained articular tissue was measured using the following scores.
After the spleen and draining lymph nodes of the mice were extracted, the number of immune cells was counted. To confirm the distribution of Th1 and Th17 cells, the immune cells obtained from each organ were stimulated using PMA/Ionomycin and Golgi stop.
After staining using an anti-IFN-γ antibody that can identify Th1 cells, an anti-IL-17 antibody that can identify Th17 cells, and an anti-CD8 antibody that can identify cytotoxic T cells, the proportion of inflammatory cells among the total immune cells was confirmed using flow cytometry.

[2] = system: adhesion of intestinal epithelial cells (HT-29) and monocytic cells (U937) induced by TNF-α; test: Inhibition of TNF-α-induced adhesion of monocytes and intestinal epithelial cells; assay type: cell-based, human; conditions: Homo sapiens
Experimental: HT-29 human colon cancer-derived epithelial cells and U937 human-derived monocytes were cultured in RPMI 1640 medium containing 10% FBS and 1% penicillin/streptomycin (PS) in a 37° C., 5% CO2 incubator. When the cells grew more than 80% of the bottom area of the culture flask, they were passaged at a ratio of 1:3 and used in this experiment. HT-29 cells were cultured in a 24-well plate at the density of 2×10^5 cells/cm^2, and the test drug was pretreated in a medium containing 1% FBS and 1% PS for 1 hour. Thereafter, 10 μg/mL of BCECF-AM was treated thereto and reacted at 37° C. for 30 minutes. U937 cells loaded with BCECF and TNF-α (10 ng/mL) were reacted with HT-29 cells previously treated with the test drug at 37° C. for 3 hours. Upon completion of the reaction, the medium was removed, and the culture flask was washed twice with PBS to remove non-adherent U937 cells. In the next step, the cells were lysed by treating with 0.1% Triton X-100 (0.1 M Tris) and reacted at room temperature for 30 minutes. Then, fluorescence was measured and quantified using a fluostar optima microplate reader (BMG Labtechnologies, Germany) (Carvalho et al., 1996; Thapa et al., 2008).

[3] = system: TNBS-induced inflammatory bowel disease rat model; test: Oral efficacy in TNBS-induced inflammatory bowel disease rat model; assay type: in vivo, Sprague Dawley rats
Experimental: Sprague Dawley rats aged 7-8 weeks were purchased from OrientBio (Korea), stabilized with general solid feed for 3 days, and then used in this experiment. Feed and water were freely supplied during the experiment period, and the temperature of the breeding room was maintained at 25±1° C. and the relative humidity at 50±10%. Lighting management was controlled in a 12-hour light-dark cycle by an automatic lighting controller.
After anesthetizing rats that had been fasted for 24 hours with diethyl ether, 0.8 mL of 5% TNBS diluted with 50v/v % ethanol was slowly injected into the lumen of the colon using a 1 mL syringe connected to a polyethylene catheter, and then, the rats were left standing for 60 seconds in an inverted position in order to prevent 5% TNBS from leaking into the anus. For the control group, only vehicle [50v/v % ethanol] was injected in the same manner as in the other groups (Thapa et al., 2008).
In order to investigate the effect of the drug, the drug was administered at a constant time every day for 5 days from the day after the TNBS treatment.
Changes in body weight of each rat were observed from the fasting stage to the TNBS administration and drug administration process using a digital mass meter.
The colon of the rat was extracted, and the tissue 5-6 cm away from the anus was cut into a length of 1 cm, and the weight of the tissue was measured.
The weighed rat tissues were fixed with 4% paraformaldehyde solution, and then transferred to 30% sucrose solution. When the tissues subside, they were taken out and cut into […] thick using a cryomicrotome (Microm HM 450, Thermo Fisher Scientific, Germany) and stored in a cryopreservation solution. After washing the tissue section with KPBS, the tissue section was attached to a slide glass, dried, and then stained with hematoxylin & Eosin and observed under a microscope.

[4] = 0.3 mg/kg, dose-dependence test (Table 7)
[5] = 1 mg/kg, dose-dependence test (Table 7)
[6] = 3 mg/kg, dose-dependence test (Table 7)
[7] = 10 mg/kg, dose-dependence test (Table 7)
[8] = oral 1 mg/kg, 5 days, fixed-dose test (Table 6)

With `Cc1ccc2[nH]c(C(=O)Nc3nc(C)c(O)c(C)c3C)cc2c1` [Compound X-09, N-(5-hydroxy-3,4,6-trimethylpyridin-2-yl)-5-methyl-1H-indole-2-carboxamide] the “number of inflammatory cells Th1 and Th17 and activated CD8 cells in spleen” value ([1]; after 35 days of drug administration, FIG. 8B) was “dose-dependent decrease”, the “number of inflammatory cells Th1 and Th17 and activated CD8 cells in draining lymph node” value ([1]; after 35 days of drug administration, FIG. 8C) was “dose-dependent effect” and the hind paw thickness ([1]; oral 50 mg/kg, 35th day of drug administration) was 1.70 mm. The arthritis score ([1]; oral 50 mg/kg, 35th day of drug administration, maximum score 16) was 7.2, the “degree of arthritis (visual observation score)” value ([1]; oral, up to 35 days, FIG. 5A) was “significantly improved dose dependently” and the inhibition at 1 µM ([2]; test drug 1 μM, TNF-α 10 ng/mL, HT-29/U937, read-out: Inhibitory activity (%)) was 82.8%. For the same compound, the IC50 ([2]; inhibition of adhesion by TNF-α) was 300 nM, the “Body weight recovery rate (%)” value [3, 4] was 17.2% and the “Intestinal weight recovery rate (%)” value [3, 4] was 47.0%. The “Body weight recovery rate (%)” value [3, 5] was 69.3%, the “Intestinal weight recovery rate (%)” value [3, 5] was 85.2% and the “Body weight recovery rate (%)” value [3, 6] was 74.6%. The “Intestinal weight recovery rate (%)” value [3, 6] was 91.7%, the “Body weight recovery rate (%)” value [3, 7] was 80.8% and the “Intestinal weight recovery rate (%)” value [3, 7] was 98.9%. For the same compound, the “Mucosal damage recovery of rat colon (hematoxylin-eosin score)” value ([3]; X-09 dose range, FIG. 1) was “dose-dependent mucosal damage recovery activity”, the “Morphological observation of colon (visual symptoms, adhesions, congestion)” value ([3]; after 5 days of drug administration, sulfasalazine 300 mg/kg, X-09 0.3-10 mg/kg) was “dose-dependent therapeutic activity for enteritis” and the “Body weight recovery rate (%)” value [3, 8] was 72.7%. For the same compound, the “Intestinal weight recovery rate (%)” value [3, 8] was 94.0%.
